Measured values reported in patent US20230357189A1, “MODIFIED FLUOROQUINOLONES AND USES THEREOF” (Technion Research & Development Foundation Limited, priority 2021, published 2023).
Values after ≈ are worked out from the molar mass of the structure shown.

Experiments:
[1] = tested on: Escherichia coli R477-100; assay: Antibacterial activity, MIC by double-microdilution method; format: cell-based; settings: for Gram-negative MIC a: Table 2, without DTT; for Gram-negative MIC a / Gram-negative MIC, DTT 10 mM / Gram-negative MIC, DTT 0 mM / Gram-negative MIC, DTT 2 mM: Escherichia coli R477-100; for improvement of MIC in the presence of DTT: 10 mM DTT vs without DTT, Gram-negative E. coli R477-100; for Gram-negative MIC, DTT 0 mM / Gram-negative MIC, DTT 2 mM: Table 3
Bacillus Subtilis = assay: as above; format: cell-based; settings: Bacillus Subtilis; for Gram-positive MIC d: Table 2; for Gram-positive MIC, DTT 0 mM / Gram-positive MIC, DTT 2 mM / Gram-positive MIC, DTT 10 mM: Table 3
Escherichia coli 25922 = assay: as above; format: cell-based; settings: Table 2; Escherichia coli 25922
[2] = tested on: Staphylococcus Epidermidis; assay: as above; format: cell-based; settings: Table 2
[3] = tested on: supercoiled (+) pHOT-1 plasmid DNA; assay: DNA cleavage assay (gel electrophoresis); format: biochemical; settings: for DNase activity (cleavage of supercoiled plasmid, form I to form II): absence of adjuvants, HEPES buffer (50 mM, pH 7.4), 5 hours
Experimental: Removal of Ligands Prior to Electrophoresis was performed when more than 100 μM of Cu(II)-ligand or Co(III) ligand (at any concentration) complexes were employed that is, for DNA cleavage assays that were performed in the absence of any adjuvants. An Amberlyst® 15 (Sigma Aldrich) ion-exchange resin was prepared according to the reported literature [Hettich et al. J. Am. Chem. Soc. 1997, 119 (24), 5638-5647] and stored at −20° C. Before use, 0.5 gram of the exchanger was mixed with 250 μL of water. After stopping the DNA-cleavage reaction by addition of EDTA (54 mM, 15 minutes incubation at 37° C.), 10 μL of the exchanger suspension was added, vortexed, and incubated at 37° C. for 15 minutes before centrifugation and electrophoresis.
DNA cleavage activity of the tested Complexes towards supercoiled (+) pHOT-1 plasmid DNA (TopoGEN) was monitored by gel electrophoresis. In a typical experiment, plasmid DNA (200 ng, […]) in HEPES buffer (50 mM, pH 7.4) was mixed with different concentrations of a tested metal complex in the presence or absence of ascorbic acid (0.32 mM). All stock solutions of buffers and of the metal complexes were prepared using HPLC grade water (ChromAR®). Molecular biology reagent grade water (Sigma) was added up to a total reaction volume of 30 μL before incubation for a given time. For the ascorbic acid assays, the reaction was quenched immediately after incubation with EDTA (54 mM). For analysis, 10 μL of loading buffer (40% sucrose, 100 mM Tris-HCl (pH 7.5), 1 mM EDTA, 0.5 mg·mL^−1 bromophenol blue) was added to the incubated solution and loaded onto an agarose (SeaKem LE) gel [1% in TAE×1 buffer (40 mM Tris, 20 mM acetic acid, 1 mM EDTA)]. Electrophoresis was carried out at 60 V for 2 hours. Gels were stained with 1 μg·mL^−1 ethidium bromide for 30 minutes and de-stained in TAE×1 buffer. DNA bands were visualized with medium-range ultraviolet light using Bio-Rad Gel Doc XR+ imaging system. The quantity of different DNA forms (I or II) was estimated using ImageJ software.
Chem. 2015, 2015 (28), 4722-4730; Kashiba-Iwatsuki et al. FEBS Lett. 1996, 389 (2), 149-15].
The copper complex of compound 2 (2-Cu(II)) was used as the positive control in these assays.

E. coli DNA gyrase = target: T1, E. coli DNA gyrase (Escherichia coli, UniProt P0AES4+P0AES6); assay: E. coli Gyrase-DNA supercoiling assay; format: biochemical; settings: supercoiling of relaxed pHOT-1 plasmid in presence of ATP; 37° C., 60 minutes
T1 construct: purchased TopoGEN
Experimental: The DNA supercoiling reactions were based on the manufacturer protocol (TopoGEN). The amount of DNA gyrase used in each assay was optimized by testing various dilutions of the stock. The amount sufficient to supercoil 250 nanograms (ng) of the substrate in 1 hour at 37° C. was then used for testing the compounds (1.1 U as defined by manufacturer). Assays (30 μL) contained 250 nanograms of relaxed pHOT1 plasmid DNA in Tris-HCl buffer (35 mM), pH 7.5, containing KCl (24 mM), MgCl2 (4 mM), DTT (2 mM), Spermidine (1.8 mM), ATP (1 mM), 6.5% (w/v) glycerol and bovine serum albumin (0.1 mg/ml). Reactions were incubated at 37° C. for 60 minutes. Reaction mixtures were stopped by the addition of 30 μL of loading buffer (40% sucrose, 100 mM Tris·HCl (pH 7.5), 1 mM EDTA, 0.5 mg×mL^−1 bromophenol blue) and worked up using 30 μL of 24:1 chloroform/isoamyl alcohol mixture; the aqueous layer was then analyzed using electrophoresis.
Electrophoresis, gel staining, DNA visualization and DNA quantification were performed as described for the DNA cleavage assays.

SMILES	DNase activity (cleavage of supercoiled plasmid, form I to form II) [3]	Gram-negative MIC, DTT 10 mM [1] [µg/mL]	Gram-negative MIC, DTT 0 mM [1] [µg/mL]	Gram-negative MIC, DTT 2 mM [1] [µg/mL]	Gram-positive MIC, DTT 0 mM (Bacillus Subtilis) [µg/mL]	Gram-positive MIC, DTT 2 mM (Bacillus Subtilis) [µg/mL]	Gram-positive MIC, DTT 10 mM (Bacillus Subtilis) [µg/mL]	MIC ([1]; E. coli R477-100, metal-free compound) [µg/mL]	Gram-negative MIC a [1] [µg/mL]	Gram-positive MIC d (Bacillus Subtilis) [µg/mL]	Gram-negative MIC b (Escherichia coli 25922) [µg/mL]	Gram-positive MIC c [2] [µg/mL]	DNase activity at micromolar concentrations ([3]; FIG. 32: 0.2 μg DNA over 2 hours (Co(III)-cyclen, 4-Co(III)), 0.6 μg DNA over 10 hours (23-Co(III)))	IC50 (E. coli DNA gyrase) [nM]	improvement of MIC in the presence of DTT [1]
O.O=C(O)c1cn(C2CC2)c2cc(N3CCN(CCCCCCN4CCNCCNCCNCC4)CC3)c(F)cc2c1=O.[Co+3].[OH-] [1-Co(III)]									12	12	12	24			
O.O=C(O)c1cn(C2CC2)c2cc(N3CCN(CCCCCCCN4CCNCCNCCNCC4)CC3)c(F)cc2c1=O.[Co+3].[OH-] [2-Co(III)]									12	12 to 24	6	24			
O.O=C(O)c1cn(C2CC2)c2cc(N3CCN(CCCCCCCCN4CCNCCNCCNCC4)CC3)c(F)cc2c1=O.[Co+3].[OH-] [3-Co(III)]									12	12	6	12 to 24			
O.O=C(O)c1cn(C2CC2)c2cc(N3CCN(CCCCCCCCN4CCNCCNCCNCC4)CC3)c(F)cc2c1=O.[Cu+2] [3-Cu(II)]	only very limited activity								12	6	6	6			
O.O=C(O)c1cn(C2CC2)c2cc(N3CCN(Cc4ccc(CN5CCNCCNCCNCC5)cc4)CC3)c(F)cc2c1=O.[Co+3].[OH-] [4-Co(III)]									12	6	6	6	strong DNA binding but no DNase activity		
O.O=C(O)c1cn(C2CC2)c2cc(N3CCN(Cc4ccc(CCCN5CCNCCNCCNCC5)cc4)CC3)c(F)cc2c1=O.[Cu+2] [6-Cu(II)]	only very limited activity								6	6	3	3		90 ± 10	
O=C(O)c1cn(C2CC2)c2cc(N3CCN(CCCCCCCCN4CCNCCNCCNCC4)CC3)c(F)cc2c1=O [Compound 3]									24 to 48	6	12	6			
[Cl][Cu][Cl] [CuCl2, reference compound]									>384	>384	>384	>384			no change whatsoever

The next lines start with results.

DNase activity (cleavage of supercoiled plasmid, form I to form II) [3]	Gram-negative MIC, DTT 10 mM [1] [µg/mL]	Gram-negative MIC, DTT 0 mM [1] [µg/mL]	Gram-negative MIC, DTT 2 mM [1] [µg/mL]	Gram-positive MIC, DTT 0 mM (Bacillus Subtilis) [µg/mL]	Gram-positive MIC, DTT 2 mM (Bacillus Subtilis) [µg/mL]	Gram-positive MIC, DTT 10 mM (Bacillus Subtilis) [µg/mL]	MIC ([1]; E. coli R477-100, metal-free compound) [µg/mL]	SMILES	Gram-negative MIC a [1] [µg/mL]	Gram-positive MIC d (Bacillus Subtilis) [µg/mL]	Gram-negative MIC b (Escherichia coli 25922) [µg/mL]	Gram-positive MIC c [2] [µg/mL]	DNase activity at micromolar concentrations ([3]; FIG. 32: 0.2 μg DNA over 2 hours (Co(III)-cyclen, 4-Co(III)), 0.6 μg DNA over 10 hours (23-Co(III)))	IC50 (E. coli DNA gyrase) [nM]	improvement of MIC in the presence of DTT [1]
significant hydrolytic DNase activity	3	24	6	12	6	3		NCCN1CCNCCNCCN(Cc2ccc(CN3CCN(c4cc5c(cc4F)c(=O)c(C(=O)[O-])cn5C4CC4)CC3)cc2)CC1.[Cu+2] [23-Cu(II)]	24	12	24	12			significant improvement in antibacterial activity
significant DNase activity	12	12	12	6	6 to 12	6		N=C(N)NCCN1CCNCCNCCN(Cc2ccc(CN3CCN(c4cc5c(cc4F)c(=O)c(C(=O)O)cn5C4CC4)CC3)cc2)CC1 [Compound 19]	12	6	12	6			
	24	24	12	12	6 to 12	12		N=C(N)NCCN1CCNCCNCCN(CCc2ccc(CN3CCN(c4cc5c(cc4F)c(=O)c(C(=O)O)cn5C4CC4)CC3)cc2)CC1 [Compound 20]	24	12	24	24			
	6	12	6	12	12	6		N=C(N)NCCN1CCNCCNCCN(CCCc2ccc(CN3CCN(c4cc5c(cc4F)c(=O)c(C(=O)O)cn5C4CC4)CC3)cc2)CC1 [Compound 21]	12	6	12	6			
significant DNase activity	12	24	12	6	6	3	24 (≈ 37 µM)	NCCN1CCNCCNCCN(Cc2ccc(CN3CCN(c4cc5c(cc4F)c(=O)c(C(=O)O)cn5C4CC4)CC3)cc2)CC1 [Compound 23]	24	6	24	12			
	12	12	6	6	6	6		NCCN1CCNCCNCCN(CCCCc2ccc(CN3CCN(c4cc5c(cc4F)c(=O)c(C(=O)O)cn5C4CC4)CC3)cc2)CC1 [Compound 26]	12	6	12	6			
